From patent US20040082635A1, “Fused cyclic compounds and medicinal use thereof” (priority 2001, published 2004)
Where a name gives a salt, the structure may show the parent alone.

Target: T1, HCV polymerase (Hepatitis C virus genotype 1b, UniProt P26663)
T1 construct: a region encoding NS5B (591 amino acids; J Virol 1991 Mar, 65(3), 1105-13) was amplified by PCR; 6 His (N); made in house; host or cells: Escherichia coli
Assay: biochemical
Settings: read-out: HCV polymerase inhibitory activity IC50

T1 sequence (P26663 2420-3010): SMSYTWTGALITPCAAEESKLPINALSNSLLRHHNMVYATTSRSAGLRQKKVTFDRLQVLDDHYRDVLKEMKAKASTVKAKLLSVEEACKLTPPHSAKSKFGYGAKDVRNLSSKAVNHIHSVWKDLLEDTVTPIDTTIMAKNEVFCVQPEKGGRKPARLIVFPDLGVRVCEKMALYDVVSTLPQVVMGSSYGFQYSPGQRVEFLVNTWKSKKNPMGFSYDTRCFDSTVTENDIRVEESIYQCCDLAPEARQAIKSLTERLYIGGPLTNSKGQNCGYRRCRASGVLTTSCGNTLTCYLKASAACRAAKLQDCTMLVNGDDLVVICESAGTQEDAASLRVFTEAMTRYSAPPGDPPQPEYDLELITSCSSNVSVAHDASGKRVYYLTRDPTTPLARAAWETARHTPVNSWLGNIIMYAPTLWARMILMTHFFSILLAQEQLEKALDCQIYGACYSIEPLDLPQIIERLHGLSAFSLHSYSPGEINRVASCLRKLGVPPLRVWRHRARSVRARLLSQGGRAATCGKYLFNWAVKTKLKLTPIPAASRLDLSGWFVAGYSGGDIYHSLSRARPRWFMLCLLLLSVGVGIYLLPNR

Point of comparison: O=C(O)c1ccc2c(c1)nc(-c1ccc(OCc3cc(Cl)ccc3-c3ccc(Cl)cc3)cc1F)n2C1CCCCC1 [Example 174, 2-{4-[3-chloro-6-(4-chlorophenyl)benzyloxy]-2-fluorophenyl}-1-cyclohexylbenzimidazole-5-carboxylic acid], IC50 30 nM. Against it:
- O=C(O)c1ccc2c(c1)nc(-c1ccc(OCc3cc(Cl)ccc3-c3ccccc3C(F)(F)F)cc1)n2C1CCCCC1 [Example 151, 2-{4-[3-chloro-6-(2-trifluoromethylphenyl)benzyloxy]phenyl}-1-cyclohexylbenzimidazole-5-carboxylic acid] — 6.7-fold higher, 200 nM
- O=C(O)c1ccc2c(c1)nc(-c1ccc(Oc3ccccc3-c3ccccc3)cc1)n2C1CCCCC1 [Example 153, 2-[4-(2-biphenylyloxy)phenyl]-1-cyclohexylbenzimidazole-5-carboxylic acid] — 6.3-fold higher, 190 nM
- O=C(O)c1ccc2c(c1)nc(-c1ccc(Oc3cccc(-c4ccccc4)c3)cc1)n2C1CCCCC1 [Example 154, 2-[4-(3-biphenylyloxy)phenyl]-1-cyclohexylbenzimidazole-5-carboxylic acid] — 2.5-fold higher, 76 nM
- CC(C)(C)OC(=O)N1CCC(COc2ccccc2Oc2ccc(-c3nc4cc(C(=O)O)ccc4n3C3CCCCC3)cc2)CC1 [Example 155, 2-{4-[2-{(1-tert-butoxycarbonyl-4-piperidyl)methoxy}phenoxy]-phenyl}-1-cyclohexylbenzimidazole-5-carboxylic acid] — 18-fold higher, 530 nM
- CC(C)(C)OC(=O)N1CCC(COc2cccc(Oc3ccc(-c4nc5cc(C(=O)O)ccc5n4C4CCCCC4)cc3)c2)CC1 [Example 156, 2-{4-[3-{(1-tert-butoxycarbonyl-4-piperidyl)methoxy}phenoxy]-phenyl}-1-cyclohexylbenzimidazole-5-carboxylic acid] — 7.7-fold higher, 230 nM
- O=C(O)c1ccc2c(c1)nc(-c1ccc(Oc3ccccc3OCC3CCNCC3)cc1)n2C1CCCCC1 [Example 160, 1-cyclohexyl-2-{4-[2-(4-piperidylmethoxy)phenoxy]phenyl}-benzimidazole-5-carboxylic acid hydrochloride] — 8-fold higher, 240 nM
- O=C(O)c1ccc2c(c1)nc(-c1ccc(Oc3cccc(OCC4CCNCC4)c3)cc1)n2C1CCCCC1 [Example 161, 1-cyclohexyl-2-{4-[3-(4-piperidylmethoxy)phenoxy]phenyl}-benzimidazole-5-carboxylic acid hydrochloride] — 2.1-fold higher, 62 nM
- CC(=O)N[C@@H](COc1ccc(-c2nc3cc(C(=O)O)ccc3n2C2CCCCC2)cc1)c1ccccc1 [Example 162, 2-{4-[(2R)-2-acetylamino-2-phenylethoxy]phenyl}-1-cyclohexylbenzimidazole-5-carboxylic acid] — 14-fold higher, 430 nM
- CC(C)=CCCOc1cccc(Oc2ccc(-c3nc4cc(C(=O)O)ccc4n3C3CCCCC3)cc2)c1 [Example 163, 1-cyclohexyl-2-{4-[3-(4-methyl-3-pentenyloxy)phenoxy]phenyl}-benzimidazole-5-carboxylic acid] — 5-fold higher, 150 nM
- O=C(O)c1ccc2c(c1)nc(-c1ccc(OC[C@@H]3CCCN3Cc3ccccc3)cc1)n2C1CCCCC1 [Example 165, 2-{4-[{(2S)-1-benzyl-2-pyrrolidinyl}methoxy]phenyl}-1-cyclohexyl-benzimidazole-5-carboxylic acid hydrochloride] — 19-fold higher, 580 nM
- CSc1ccc(-c2ccc(Cl)cc2COc2ccc(-c3nc4cc(C(=O)O)ccc4n3C3CCCCC3)cc2)cc1 [Example 166, 2-{4-[3-chloro-6-(4-methylthiophenyl)benzyloxy]phenyl}-1-cyclohexylbenzimidazole-5-carboxylic acid] — 1.8-fold higher, 55 nM
- CS(=O)(=O)c1ccc(-c2ccc(Cl)cc2COc2ccc(-c3nc4cc(C(=O)O)ccc4n3C3CCCCC3)cc2)cc1 [Example 167, 2-{4-[3-chloro-6-(4-methanesulfonylphenyl)benzyloxy]phenyl}-1-cyclohexylbenzimidazole-5-carboxylic acid] — within 1.5-fold, 33 nM
- O=C(O)c1ccc2c(c1)nc(-c1ccc(OCc3cc(Cl)ccc3-c3cccs3)cc1)n2C1CCCCC1 [Example 168, 2-{4-[3-chloro-6-(2-thienyl)benzyloxy]phenyl}-1-cyclohexylbenzimidazole-5-carboxylic acid] — 2.6-fold higher, 78 nM
- O=C(O)c1ccc2c(c1)nc(-c1ccc(OCc3cc(Cl)ccc3-c3cccc(Cl)c3)cc1)n2C1CCCCC1 [Example 169, 2-{4-[3-chloro-6-(3-chlorophenyl)benzyloxy]phenyl}-1-cyclohexylbenzimidazole-5-carboxylic acid] — 5-fold higher, 150 nM
- O=C(O)c1ccc2c(c1)nc(-c1ccc(OCc3cc(Cl)ccc3-c3cccnc3)cc1)n2C1CCCCC1 [Example 170, 2-{4-[3-chloro-6-(3-pyridyl)benzyloxy]phenyl}-1-cyclohexylbenzimidazole-5-carboxylic acid] — 1.6-fold higher, 48 nM
- O=C(O)c1ccc2c(c1)nc(-c1ccc(OCc3cc(Cl)ccc3-c3ccc(F)cc3)cc1)n2C1CCCCC1 [Example 171, 2-{4-[3-chloro-6-(4-fluorophenyl)benzyloxy]phenyl}-1-cyclohexylbenzimidazole-5-carboxylic acid] — 1.7-fold higher, 50 nM
- O=C(O)c1ccc2c(c1)nc(-c1ccc(Oc3ccc(OCc4ccccc4)cc3)c(F)c1)n2C1CCCCC1 [Example 172, 2-[4-(4-benzyloxyphenoxy)-3-fluorophenyl]-1-cyclohexylbenzimidazole-5-carboxylic acid] — 3.3-fold higher, 100 nM
- O=C(O)c1ccc2c(c1)nc(-c1ccc(OCc3cc(Cl)ccc3Br)cc1)n2C1CCCCC1 [Example 173, 2-[4-(2-bromo-5-chlorobenzyloxy)phenyl]-1-cyclohexylbenzimidazole-5-carboxylic acid] — 4.7-fold higher, 140 nM
- CC(=O)N1CCC(COc2ccccc2Oc2ccc(-c3nc4cc(C(=O)O)ccc4n3C3CCCCC3)cc2)CC1 [Example 175, 2-{4-[2-{(1-acetyl-4-piperidyl)methoxy}phenoxy]phenyl}-1-cyclohexylbenzimidazole-5-carboxylic acid] — 9.7-fold higher, 290 nM
- CC(=O)N1CCC(COc2cccc(Oc3ccc(-c4nc5cc(C(=O)O)ccc5n4C4CCCCC4)cc3)c2)CC1 [Example 176, 2-{4-[3-{(1-acetyl-4-piperidyl)methoxy}phenoxy]phenyl}-1-cyclohexylbenzimidazole-5-carboxylic acid] — 1.8-fold higher, 53 nM
- C#CCOc1cccc(Oc2ccc(-c3nc4cc(C(=O)O)ccc4n3C3CCCCC3)cc2)c1 [Example 177, 1-cyclohexyl-2-{4-[3-(2-propynyloxy)phenoxy]phenyl}benzimidazole-5-carboxylic acid] — 2.6-fold higher, 77 nM
- O=C(O)c1ccc2c(c1)nc(-c1ccc(Oc3cccc(OCc4cccnc4)c3)cc1)n2C1CCCCC1 [Example 178, 1-cyclohexyl-2-{4-[3-(3-pyridylmethoxy)phenoxy]phenyl}-benzimidazole-5-carboxylic acid] — 1.7-fold higher, 52 nM
- COc1cc(OCc2ccccc2)ccc1-c1nc2cc(C(=O)O)ccc2n1C1CCCCC1 [Example 179, 2-(4-benzyloxy-2-methoxyphenyl)-1-cyclohexylbenzimidazole-5-carboxylic acid] — 21-fold higher, 630 nM
- COc1ccc(Br)c(COc2ccc(-c3nc4cc(C(=O)O)ccc4n3C3CCCCC3)cc2)c1 [Example 180, 2-[4-(2-bromo-5-methoxybenzyloxy)phenyl]-1-cyclohexylbenzimidazole-5-carboxylic acid] — 3.7-fold higher, 110 nM
- O=C(O)c1ccc2c(c1)nc(-c1ccc(OC(C(=O)O)(c3ccccc3)c3ccccc3)cc1)n2C1CCCCC1 [Example 181, 2-[4-(carboxydiphenylmethoxy)phenyl]-1-cyclohexylbenzimidazole-5-carboxylic acid] — 24-fold higher, 710 nM
- O=C(O)c1ccc2c(c1)nc(-c1ccc(OCc3cc([N+](=O)[O-])ccc3-c3ccc(Cl)cc3)cc1)n2C1CCCCC1 [Example 182, 2-{4-[2-(4-chlorophenyl)-5-nitrobenzyloxy]phenyl}-1-cyclohexylbenzimidazole-5-carboxylic acid] — within 1.5-fold, 21 nM
- O=C(O)c1ccc(-c2ccc(Cl)cc2COc2ccc(-c3nc4cc(C(=O)O)ccc4n3C3CCCCC3)cc2)cc1 [Example 184, 2-{4-[2-(4-carboxyphenyl)-5-chlorobenzyloxy]phenyl}-1-cyclohexylbenzimidazole-5-carboxylic acid] — 1.7-fold lower, 18 nM
- O=C(O)c1ccc2c(c1)nc(-c1ccc(OC[C@@H]3CCCN3C(=O)OCc3ccccc3)cc1)n2C1CCCCC1 [Example 185, 2-{4-[{(2S)-1-benzyloxycarbonyl-2-pyrrolidinyl}methoxy]phenyl}-1-cyclohexylbenzimidazole-5-carboxylic acid] — 3.7-fold higher, 110 nM
- O=C(O)c1ccc2c(c1)nc(-c1ccc(OCc3ccccc3-c3ccc(C(F)(F)F)cc3)cc1Cl)n2C1CCCCC1 [Example 186, 2-{2-chloro-4-[2-(4-trifluoromethylphenyl)benzyloxy]phenyl}-1-cyclohexylbenzimidazole-5-carboxylic acid] — 12-fold higher, 370 nM
- O=C(O)c1ccc2c(c1)nc(-c1ccc(Oc3cccc(OCc4ccccn4)c3)cc1)n2C1CCCCC1 [Example 187, 1-cyclohexyl-2-{4-[3-(2-pyridylmethoxy)phenoxy]phenyl}-benzimidazole-5-carboxylic acid] — 1.9-fold higher, 56 nM
- O=C(O)c1ccc2c(c1)nc(-c1ccc(OCc3cc(F)ccc3-c3ccc(Cl)cc3)cc1)n2C1CCCCC1 [Example 188, 2-{4-[2-(4-chlorophenyl)-5-fluorobenzyloxy]phenyl}-1-cyclohexylbenzimidazole-5-carboxylic acid] — within 1.5-fold, 38 nM
- O=C(O)c1ccc(-c2ccc(Cl)cc2)c(COc2ccc(-c3nc4cc(C(=O)O)ccc4n3C3CCCCC3)cc2)c1 [Example 189, 2-{4-[3-carboxy-6-(4-chlorophenyl)benzyloxy]phenyl}-1-cyclohexylbenzimidazole-5-carboxylic acid] — 1.8-fold lower, 17 nM
- CN(C)C(=O)COc1ccccc1Oc1ccc(-c2nc3cc(C(=O)O)ccc3n2C2CCCCC2)cc1 [Example 191, 1-cyclohexyl-2-{4-[2-(dimethylcarbamoylmethoxy)phenoxy]-phenyl}benzimidazole-5-carboxylic acid] — 14-fold higher, 430 nM
- O=C(O)c1ccc2c(c1)nc(-c1ccc(Oc3ccccc3OCC(=O)N3CCCCC3)cc1)n2C1CCCCC1 [Example 192, 1-cyclohexyl-2-{4-[2-(piperidinocarbonylmethoxy)phenoxy]-phenyl}benzimidazole-5-carboxylic acid] — 7.3-fold higher, 220 nM
